The values that follow come from ChEMBL document CHEMBL1156259, “Synthesis and biological evaluation of amidine, guanidine, and thiourea derivatives of 2-amino(6-trifluoromethoxy)benzothiazole as neuroprotective agents potentially useful in brain diseases” (J Med Chem, 2010).

Active and inactive are the calls of the source. The calls are words filed in the database; no cut-off is given here.

Assay [1] concerns Cortex. Nature of the assay: Neuroprotective activity in Sprague-Dawley rat brain cortex slices assessed as interval of drug concentration causing reduction of oxygen/glucose deprivation-induced glutamate release. It is filed as functional.
In assay [2] the test system is Cortex. Nature of the assay: Neuroprotective activity in Sprague-Dawley rat brain cortex slices assessed as drug concentration causing maximum reduction of oxygen/glucose deprivation-induced glutamate release. In kind it is functional. Particulars: read-out: MEC.
For assay [3], the system named is Cortex. Nature of the assay: Neuroprotective activity in Sprague-Dawley rat brain cortex slices assessed as reduction of oxygen/glucose deprivation-induced glutamate release at minimal effective concentration. In kind it is functional. On the set-up: scale not given: the % may be the effect or the level left.
Assay [4] deals with Cortex. The assay is described as follows: Neuroprotective activity in Sprague-Dawley rat brain cortex slices assessed as interval of drug concentration causing reduction of oxygen/glucose deprivation-induced LDH release. It is filed as functional. A general note: LDH in the medium is a marker of cell lysis.
The subject of assay [5] is Cortex. Nature of the assay: Neuroprotective activity in Sprague-Dawley rat brain cortex slices assessed as drug concentration causing maximum reduction of oxygen/glucose deprivation-induced LDH release. It is filed as functional. Particulars: read-out: MEC.
For assay [6], the system named is Cortex. The assay is described as follows: Neuroprotective activity in Sprague-Dawley rat brain cortex slices assessed as reduction of oxygen/glucose deprivation-induced LDH release at minimal effective concentration. It is filed as functional. Details: scale not given: the % may be the effect or the level left.
A short description of assay [7]: Antioxidant activity assessed as ABTS+ radical scavenging activity by spectrophotometry relative to 1 mM Trolox. It is filed as functional.
Another assay can be described thus: cells. It is filed as tissue-based. Particulars: Rattus norvegicus, Wistar, Piriform cortex.
The species named for assay [8] is Rattus norvegicus. Particulars: Wistar, Piriform cortex, at 50 µM.
Description: Inhibition of voltage-dependent Na(+) channel in Wistar rat brain piriform cortex layer 2 assessed as inhibition of transient Na+ current amplitude at 50 uM under holding potential of -80 mV by whole cell patch clamp assay
For assay [9], the species on record is Rattus norvegicus. Particulars: Wistar, Piriform cortex, at 60 µM.
Description: Inhibition of voltage-dependent Ca(+) channel in Wistar rat brain piriform cortex acutely dissociated neurons assessed as effect on half activation potential of high voltage activated Ba+ current at 60 uM by whole cell patch clamp assay
Assay [10] is filed under the species Rattus norvegicus. Particulars: Wistar, Piriform cortex, at 60 µM. This is another data set of the same source.
Description: Inhibition of voltage-dependent Ca(+) channel in Wistar rat brain piriform cortex acutely dissociated neurons assessed as effect on high voltage activated Ba+ current activation speed at 60 uM by whole cell patch clamp assay
For assay [11], the species on record is Rattus norvegicus. Particulars: Wistar, Piriform cortex, at 60 µM. This is another data set of the same source.
Description: Inhibition of voltage-dependent Ca(+) channel in Wistar rat brain piriform cortex acutely dissociated neurons assessed as effect on high voltage activated Ba+ current deactivation at 60 uM by whole cell patch clamp assay
Assay [12] deals with Nitric oxide synthase 1 (Rattus norvegicus) (UniProt P29476). The assay is described as follows: Inhibition of nNOS in Sprague-Dawley rat brain assessed as nitric oxide-mediated conversion of oxyhemoglobin to methemoglobin.

Usually IC50 stands for the concentration that gives 50% inhibition. What is called inhibition is the change of the read-out against control, counted positive when it falls.

Chain of Nitric oxide synthase 1 (Rattus norvegicus) (P29476 whole entry): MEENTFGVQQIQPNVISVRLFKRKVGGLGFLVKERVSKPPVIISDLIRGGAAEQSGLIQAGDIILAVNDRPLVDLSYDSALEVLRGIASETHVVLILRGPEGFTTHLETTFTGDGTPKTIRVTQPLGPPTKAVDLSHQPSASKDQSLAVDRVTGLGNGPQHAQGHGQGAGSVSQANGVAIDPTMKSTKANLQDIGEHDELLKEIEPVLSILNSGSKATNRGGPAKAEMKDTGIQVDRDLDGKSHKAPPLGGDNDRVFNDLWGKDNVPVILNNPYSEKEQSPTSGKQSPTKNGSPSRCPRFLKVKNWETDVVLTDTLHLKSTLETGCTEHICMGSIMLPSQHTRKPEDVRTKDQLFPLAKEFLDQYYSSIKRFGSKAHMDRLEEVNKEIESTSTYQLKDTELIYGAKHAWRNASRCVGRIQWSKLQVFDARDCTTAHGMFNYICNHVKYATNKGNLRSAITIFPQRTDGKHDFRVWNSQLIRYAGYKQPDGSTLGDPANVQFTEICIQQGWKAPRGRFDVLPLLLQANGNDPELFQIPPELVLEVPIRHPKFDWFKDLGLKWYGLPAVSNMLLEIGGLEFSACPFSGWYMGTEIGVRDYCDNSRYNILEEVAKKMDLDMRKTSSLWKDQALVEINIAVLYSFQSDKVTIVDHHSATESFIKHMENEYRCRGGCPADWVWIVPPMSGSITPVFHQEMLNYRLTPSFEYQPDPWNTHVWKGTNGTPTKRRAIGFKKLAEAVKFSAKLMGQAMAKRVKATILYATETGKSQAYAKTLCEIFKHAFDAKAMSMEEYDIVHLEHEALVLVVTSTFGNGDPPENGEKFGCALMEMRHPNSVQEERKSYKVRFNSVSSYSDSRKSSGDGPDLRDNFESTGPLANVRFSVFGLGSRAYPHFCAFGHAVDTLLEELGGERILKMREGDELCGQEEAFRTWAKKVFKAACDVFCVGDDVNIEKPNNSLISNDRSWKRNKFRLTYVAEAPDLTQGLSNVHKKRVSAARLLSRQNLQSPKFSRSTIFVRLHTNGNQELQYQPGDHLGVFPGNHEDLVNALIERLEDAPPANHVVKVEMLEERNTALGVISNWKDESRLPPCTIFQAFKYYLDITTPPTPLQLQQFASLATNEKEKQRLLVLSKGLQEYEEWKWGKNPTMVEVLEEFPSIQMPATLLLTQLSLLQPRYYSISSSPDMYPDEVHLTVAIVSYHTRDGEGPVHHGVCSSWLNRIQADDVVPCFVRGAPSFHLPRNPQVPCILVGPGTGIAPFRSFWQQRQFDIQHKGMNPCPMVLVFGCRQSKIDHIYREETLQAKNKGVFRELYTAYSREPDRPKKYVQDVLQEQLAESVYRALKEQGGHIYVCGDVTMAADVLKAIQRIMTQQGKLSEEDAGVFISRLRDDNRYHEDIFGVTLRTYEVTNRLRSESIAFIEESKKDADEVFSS
Description for cells: Inhibition of voltage-dependent Ca(+) channel in Wistar rat brain piriform cortex acutely dissociated neurons assessed as inhibition of high voltage activated Ba+ current amplitude at under holding potential of -60 mV by whole cell patch clamp assay

For `CC(C)NC(=S)Nc1nc2ccc(OC(F)(F)F)cc2s1`, the Activity in the assay on Cortex [1] turned out to be 0.01 µM; in the assay on Cortex [3], 80.3%; in the assay on Cortex [4], 0.01 µM; in the assay with Cortex [6] it was 50%. In addition, the minimal effective concentration came to 0.1 µM in the assay with Cortex [2] and 0.01 µM with Cortex [5]. The Ratio in assay [7] was 0.64.
With `O=c1c2ccccc2[se]n1-c1ccccc1`, in [7], the Ratio was 0.32.
As to `CCCCNC(=S)Nc1nc2ccc(OC(F)(F)F)cc2s1`, the Activity with Cortex [1] was 0.01 µM; in the assay on Cortex [3] it was 100%; with Cortex [4], 0.01 µM; in the assay with Cortex [6] it was 32%. Besides, the minimal effective concentration was found to be 1 µM in the assay with Cortex [2] and 0.01 µM in the assay with Cortex [5]. In assay [7], the Ratio amounted to 0.98. In “cells”, this molecule registered a half-maximal inhibitory concentration (IC50) of 24.1 µM. For the same molecule, the inhibition in the assay listed under Rattus norvegicus [8] came out at 0%. The inhibition result in the assay listed under Rattus norvegicus [9] and in the assay listed under Rattus norvegicus [10] was “inactive” each time. In addition, the inhibition entry in the assay listed under Rattus norvegicus [11] was “Active”.
As to `CCCNC(=S)Nc1nc2ccc(OC(F)(F)F)cc2s1`, the Activity came out at 0.01 µM with Cortex [1], 94.2% with Cortex [3], 0.01 µM in the assay on Cortex [4] and 60.9% in the assay on Cortex [6]. The minimal effective concentration in the assay with Cortex [2] and in the assay with Cortex [5] was 0.01 µM each time. For the same molecule, in assay [7], the Ratio came out at 0.5. The same molecule registered an inhibition in the assay listed under Rattus norvegicus [8] of 15%.
For `CCNC(=S)Nc1nc2ccc(OC(F)(F)F)cc2s1`, the Activity in the assay with Cortex [1] stood at 1 µM; in the assay with Cortex [3], 80.1%; in the assay on Cortex [4] it was 0.1 µM; in the assay with Cortex [6], 73.1%. Further, the minimal effective concentration in the assay on Cortex [2] stood at 1 µM; in the assay with Cortex [5], 0.1 µM. Also, in [7], the Ratio is 0.88.
In the case of `C/C(=N\c1nc2ccc(OC(F)(F)F)cc2s1)N(C)C`, the Activity was 0.1 µM with Cortex [1], 100% with Cortex [3], 0.1 µM in the assay on Cortex [4] and 56.9% with Cortex [6]. For the same molecule, the minimal effective concentration in the assay on Cortex [2] and with Cortex [5] was 0.1 µM in each case. In [12], the inhibition entry is “inactive”.
On to `Nc1nc2ccc(OC(F)(F)F)cc2s1` [RILUZOLE], for which the Activity in the assay on Cortex [1] is 1 µM; in the assay on Cortex [3], 100%; in the assay on Cortex [4] it was 0.1 µM; with Cortex [6] it was 100%. In addition, the minimal effective concentration in the assay with Cortex [2] amounted to 1 µM; in the assay on Cortex [5], 10 µM. In addition, the inhibition entry (in assay [7]; in the assay filed under Rattus norvegicus [9]; in the assay listed under Rattus norvegicus [10]) was “inactive” throughout. This molecule yielded an IC50 in the assay “cells” of 34.2 µM. Besides, in the assay listed under Rattus norvegicus [8], the inhibition is greater than 50%. For the same molecule, the inhibition entry in the assay filed under Rattus norvegicus [11] is “Active”.
